Assay results: publication PMC11044151, “Development of Half-Sandwich Ru, Os, Rh, and Ir Complexes Bearing the Pyridine-2-ylmethanimine Bidentate Ligand Derived from 7-Chloroquinazolin-4(3H)-one with Enhanced Antiproliferative Activity” (ACS Omega, 2024)
Where two headings read alike, the source gives them in different places.

What was measured:
HCT116 = experiment: cells; settings: for IC50: read-out: IC50 HCT116; for activity factor IC50(1)/IC50(3a–4d), HCT116: vs corresponding amine (R)-1 or (S)-1, 72 h
Text: (§1) To assess the impact of conjugating half-sandwich complexes with amines 1 via an imine-pyridine ligand on biological activity, we examined the antiproliferative potential of (R)- and (S)-1 and organometallic conjugates 3a–d and 4a–d in selected human cancer cell lines: alveolar basal epithelial cell adenocarcinoma (A549), colorectal adenocarcinomas (Colo205 and SW620), colorectal carcinoma (HCT116), hepatocellular carcinoma (HepG2), and breast adenocarcinoma (MCF7). The choice of cell lines was dictated by results of previously published clinical trials on ispinesib.[49],[50]
(§2) For this purpose, neutral red uptake assay was performed. 10^4 of cells were seeded per well of a 96-well plate and left overnight to allow cells to attach to the surface. Then, the cells were exposed to a desired concentration of tested compounds. Stock solutions were prepared in DMSO and were used immediately after preparation. The final concentration of DMSO was constant and nontoxic (0.1% v/v). After 70 h of culture, neutral red was added to the final concentration of 1 mM. After 2 h of incubation with the dye, the medium was aspirated and cells were washed with ice-cold PBS. The dye was released using 100 μL of the solubilizer (1% acetic acid in 50% ethanol) on an orbital shaker (10 min). The absorbance at 540 nm was measured using an EnVision multilabel plate reader (PerkinElmer). […] The IC90 and IC50 parameters were calculated using GraphPad Prism v9 software using the five-parameter nonlinear logistic regression model.

Colo205 = experiment: cells; settings: for IC50: read-out: IC50 Colo205; for activity factor IC50(1)/IC50(3a–4d), Colo205: vs corresponding amine (R)-1 or (S)-1, 72 h
Text: as §1
(§3) Cell lines used in this study were purchased from the American Type Culture Collection via LGC Standards. Human normal lung fibroblasts (MRC-5), alveolar basal epithelial cell adenocarcinoma (A549), colorectal adenocarcinoma (Colo205), hepatocellular carcinoma (HepG2), breast adenocarcinoma (MCF7), and colorectal adenocarcinoma (SW620) and its MDR variants[55] were cultured in standard conditions (37 °C, 5% CO2, 100% relative humidity) in high glucose DMEM medium supplemented with GlutaMax, HEPES (ThermoFisher Scientific) and 10% fetal bovine serum (EURx, Poland). All cell lines were tested for Mycoplasma contamination using a MycoProbe mycoplasma detection kit (R&D System).
as §2

HepG2 = experiment: cells; settings: for IC50: read-out: IC50 HepG2; for activity factor IC50(1)/IC50(3a–4d), HepG2: vs corresponding amine (R)-1 or (S)-1, 72 h
Text: as §1, §3, §2

MCF7 = experiment: cells; settings: for IC50: read-out: IC50 MCF7; for activity factor IC50(1)/IC50(3a–4d), MCF7: vs corresponding amine (R)-1 or (S)-1, 72 h
Text: as §1, §3, §2

SW620V = experiment: Neutral red uptake antiproliferative assay, MDR line SW620V; format: cell-based, human; settings: for IC50: exposure time 72 h, n = 3, ABCB1-overexpressing MDR line; for activity factor IC50(1)/IC50(3a–4d), SW620V: vs corresponding amine (R)-1 or (S)-1, 72 h
Text: (§4) Next, we evaluated the cytotoxicity of the synthesized complexes toward the panel of six multidrug-resistant (MDR) cell lines derived from SW620 and characterized by the overexpression of various ABC proteins, namely, ABCG2 (SW620C and SW620Mito), ABCC1 (SW620M and SW620E), and ABCB1 (SW620D, SW620E, and SW620V) (Table 3, Figures S29 and S32). […] The activity of the complexes derived from the ligand (S)-2 is also considerably higher than that of the compounds containing the ligand (R)-2. The cytotoxicity of both rhodium 4c and iridium 4d complexes is higher than that of amine (S)-1. In the case of 4c, the increase in cytotoxicity is low, with the highest value of 3.7-fold for the SW620Mito line. […] Compound 4d also exerts a 2.1- and 2.6-fold higher cytotoxicity than […] against the SW620C and SW620D lines.
(§5) For this purpose, neutral red uptake assay was performed. […] The results were presented as a percentage of control.

SW620D = experiment: Neutral red uptake antiproliferative assay, MDR line SW620D; format: cell-based, human; settings: for IC50: exposure time 72 h, n = 3, ABCB1-overexpressing MDR line; for activity factor IC50(1)/IC50(3a–4d), SW620D: vs corresponding amine (R)-1 or (S)-1, 72 h
Text: as §4, §5

SW620E = experiment: Neutral red uptake antiproliferative assay, MDR line SW620E; format: cell-based, human; settings: for IC50: exposure time 72 h, n = 3, ABCC1- and ABCB1-overexpressing MDR line; for activity factor IC50(1)/IC50(3a–4d), SW620E: vs corresponding amine (R)-1 or (S)-1, 72 h
Text: as §4, §5

SW620 cells = experiment: Cell cycle distribution by flow cytometry, SW620; format: cell-based, human; settings: concentration equal to IC75 of (S)-1 / (R)-1, mean ± SEM, n = 3; for Cell cycle fraction G1, 24 h / Cell cycle fraction G2/M, 24 h / Cell cycle fraction S, 24 h: SW620, 24 h; for Cell cycle fraction G1, 48 h / Cell cycle fraction G2/M, 48 h / Cell cycle fraction S, 48 h: SW620, 48 h
Protocol: Ispinesib leads to the formation of monopolar mitotic spindles and a blockade of chromosome segregation in cancer cells. Using flow cytometry, we assessed the cell cycle distribution in the SW620 and SW620E cells exposed to the studied compounds for 24 and 48 h. […] Both complexes, 3c and 3d, decrease the percentage of cells in the G1/G0 phase and increase the percentage in the S and G2/M phases. […] Furthermore, prolonged exposure to the compounds increases the percentage of cells in the G2/M phase, with the most intensive effect observed for 3c and 3d.
SW620 and SW620E cells lines (vulnerable and resistant variants, respectively) were seeded in 6-well plates at a density of 10^5 cells per well. […] After 24 h, the cells were trypsinized and fixed with ice-cold 70% v/v ethanol. The cells were stained with 75 μM propidium iodide with 50 Kunitz units of RNase A in PBS for 30 min at 37 °C. All samples were analyzed using a LSRII flow cytometer (Becton Dickinson) at a PE channel ([…]). Cell cycle phase distribution was determined using a built-in cell cycle module (Watson pragmatic algorithm) by FlowJo 7.6.1 software.

SW620C = experiment: Neutral red uptake antiproliferative assay, MDR line SW620C; format: cell-based, human; settings: for IC50: exposure time 72 h, n = 3, ABCG2-overexpressing MDR line; for activity factor IC50(1)/IC50(3a–4d), SW620C: vs corresponding amine (R)-1 or (S)-1, 72 h
Text: as §4, §5

A549 = experiment: Neutral red uptake antiproliferative assay, A549; settings: for IC50: read-out: IC50 A549; for activity factor IC50(1)/IC50(3a–4d), A549: vs corresponding amine (R)-1 or (S)-1, 72 h
Text: as §1, §3, §2

SW620 = experiment: Neutral red uptake antiproliferative assay, SW620; format: cell-based, human; settings: for IC50: exposure time 72 h, n = 3, 95% CI given; for activity factor IC50(1)/IC50(3a–4d), SW620: vs corresponding amine (R)-1 or (S)-1, 72 h
Text: as §1, §3, §2

SW620Mito = experiment: Neutral red uptake antiproliferative assay, MDR line SW620Mito; format: cell-based, human; settings: for IC50: exposure time 72 h, n = 3, ABCG2-overexpressing MDR line; for activity factor IC50(1)/IC50(3a–4d), SW620Mito: vs corresponding amine (R)-1 or (S)-1, 72 h
Text: as §4, §5

SW620M = experiment: Neutral red uptake antiproliferative assay, MDR line SW620M; format: cell-based, human; settings: for IC50: exposure time 72 h, n = 3, ABCC1-overexpressing MDR line; for activity factor IC50(1)/IC50(3a–4d), SW620M: vs corresponding amine (R)-1 or (S)-1, 72 h
Text: as §4, §5

[1] = exposure time 72 h, n = 3, 95% CI given

Row | Compound | Cell cycle fraction G1, 24 h (SW620 cells) [%] | Cell cycle fraction G2/M, 24 h (SW620 cells) [%] | Cell cycle fraction S, 24 h (SW620 cells) [%] | Cell cycle fraction G1, 48 h (SW620 cells) [%] | Cell cycle fraction G2/M, 48 h (SW620 cells) [%] | Cell cycle fraction S, 48 h (SW620 cells) [%] | IC50 (HCT116; [1]) [µM] | activity factor IC50(1)/IC50(3a–4d), HCT116 (HCT116) | IC50 (Colo205; [1]) [µM] | activity factor IC50(1)/IC50(3a–4d), Colo205 (Colo205) | IC50 (HepG2; [1]) [µM] | activity factor IC50(1)/IC50(3a–4d), HepG2 (HepG2) | IC50 (MCF7; [1]) [µM] | activity factor IC50(1)/IC50(3a–4d), MCF7 (MCF7) | IC50 (SW620V) [µM] | activity factor IC50(1)/IC50(3a–4d), SW620V (SW620V) | IC50 (SW620D) [µM] | activity factor IC50(1)/IC50(3a–4d), SW620D (SW620D) | IC50 (SW620E) [µM] | activity factor IC50(1)/IC50(3a–4d), SW620E (SW620E) | other results
1 | CC(C)[C@H](N)c1nc2cc(Cl)ccc2c(=O)n1Cc1ccccc1 [(S)-1, reference compound] | 41.8 ± 1.2 | 37.1 ± 1.2 | 19.5 ± 0.3 | 35.2 ± 1.1 | 42.5 ± 0.6 | 19.9 ± 0.4 | – | – | – | – | – | – | – | – | – | – | – | – | – | – | IC50 (HCT116; Homo sapiens, HCT-116, 72 h): 8.06 µM; IC50 (Colo205; Homo sapiens, COLO 205, 72 h): 6.07 µM; IC50 (HepG2; Homo sapiens, HepG2, 72 h): 2.4 µM; IC50 (MCF7; Homo sapiens, MCF7, 72 h): 3.91 µM; IC50 (SW620V; Homo sapiens): 3.44 µM; IC50 (SW620D; Homo sapiens): 4.15 µM; IC50 (SW620E; Homo sapiens): 4.05 µM; IC50 (SW620C; Homo sapiens): 3.33 µM; IC50 (A549; Homo sapiens, A549, 72 h): 7.05 µM; IC50 (SW620; Homo sapiens, SW-620): 2.87 µM; IC50 (SW620Mito; Homo sapiens): 3.91 µM; IC50 (SW620M; Homo sapiens): 3.46 µM
2 | CC(C)[C@H](N=Cc1ccccn1)c1nc2cc(Cl)ccc2c(=O)n1Cc1ccccc1.Cc1c(C)c(C)[c-](C)c1C.F[P-](F)(F)(F)(F)F.[Cl-].[Rh+3] [Compound 4c, [(Cp*)Rh((S)-2)Cl]PF6] | 52.6 ± 1.9 | 32.7 ± 2.0 | 13.6 ± 0.3 | 41.6 ± 1.0 | 43.8 ± 1.4 | 13.7 ± 0.4 | 2.94 | (2.74) | 2.89 | (2.10) | 1.15 | (2.09) | 1.5 | (2.61) | 2.98 | (1.15) | 6.07 | (0.684) | 6.2 | (0.653) | IC50 (SW620C): 2.97 µM; activity factor IC50(1)/IC50(3a–4d), SW620C (SW620C): (1.12); IC50 (A549; [1]): 3.79 µM; activity factor IC50(1)/IC50(3a–4d), A549 (A549): (1.86); IC50 (SW620): 2.24 µM; activity factor IC50(1)/IC50(3a–4d), SW620 (SW620): (1.28); IC50 (SW620Mito): 1.05 µM; increase in cytotoxicity vs corresponding amine 1, SW620Mito (SW620Mito; rounded value): 3.7 fold; activity factor IC50(1)/IC50(3a–4d), SW620Mito (SW620Mito): (3.72); IC50 (SW620M): 2.25 µM; activity factor IC50(1)/IC50(3a–4d), SW620M (SW620M): (1.54)
3 | CC(C)[C@H](N=Cc1ccccn1)c1nc2cc(Cl)ccc2c(=O)n1Cc1ccccc1.Cc1ccc(C(C)C)cc1.F[P-](F)(F)(F)(F)F.[Cl-].[Os+2] [Compound 4b, [(cym)Os((S)-2)Cl]PF6] | 51.8 ± 0.2 | 32.6 ± 0.3 | 15.0 ± 0.5 | 41.8 ± 0.4 | 42.7 ± 0.6 | 14.9 ± 0.4 | 0.823 | (9.79) | 0.904 | (6.71) | 1.13 | (2.12) | 0.438 | (8.93) | 9.3 | (0.370) | 13.5 | (0.307) | 12.8 | (0.316) | increased cytotoxicity vs corresponding amine 1, HCT116 (HCT116): 10 fold; increased cytotoxicity vs corresponding amine 1, Colo205 (Colo205): 7 fold; increased cytotoxicity vs corresponding amine 1, MCF7 (MCF7): 9 fold; IC50 (SW620C): 4.54 µM; activity factor IC50(1)/IC50(3a–4d), SW620C (SW620C): (0.738); IC50 (A549; [1]): 2.19 µM; activity factor IC50(1)/IC50(3a–4d), A549 (A549): (3.22); IC50 (SW620): 2.31 µM; activity factor IC50(1)/IC50(3a–4d), SW620 (SW620): (1.24); IC50 (SW620Mito): 3.78 µM; activity factor IC50(1)/IC50(3a–4d), SW620Mito (SW620Mito): (1.03); IC50 (SW620M): 2.45 µM; activity factor IC50(1)/IC50(3a–4d), SW620M (SW620M): (1.41)
